Values of other authors as cited in patent publication US20040086492A1, “Method of treating tumor and consignment system of proliferating and processing activated lymphocytes to be used in parallel to pdt” (priority 2001, published 2004).

Settings: stated as a characteristic of Photofrin

porfirmer sodium [Photofrin]
rate taken into cancerous tissue relative to normal tissue: approximately 10 times
